Data reported in patent US20230257396A1, “MACROCYCLES AND THEIR USE” (BLOSSOMHILL THERAPEUTICS, INC., priority 2020, published 2023).
Substitutions are numbered along the chain they refer to.

Legend:
Test in all cases: KINOMEscan kinase binding assay (Eurofins/DiscoveRx), % Ctrl
Conditions in all cases: 1 μM
kinases [1] = target: T1, kinases (Homo sapiens, UniProt P00519, M351T)
T1 construct: purchased Eurofins/DiscoveRx; host or cells: E. coli BL21-derived host (T7 phage display) for most kinases; HEK-293 for the rest
How it was run: (§1)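 Read-out is qPCR of kinase eluted from ligand-coated streptavidin beads after 1 h room-temperature competition with test compound. Values are % Ctrl at the tested concentration, lower meaning tighter binding.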

kinases [2] = target: T2, kinases (Homo sapiens, UniProt P00533, L858R/T790M)
T2 construct: purchased Eurofins/DiscoveRx; host or cells: E. coli BL21-derived host (T7 phage display) for most kinases; HEK-293 for the rest
How it was run: as §1

kinases [3] = target: T3, kinases (Homo sapiens, UniProt P07949)
T3 construct: purchased Eurofins/DiscoveRx; host or cells: E. coli BL21-derived host (T7 phage display) for most kinases; HEK-293 for the rest
How it was run: as §1

kinases [4] = target: T4, kinases (Homo sapiens, UniProt P10721, T670I/V559D)
T4 construct: purchased Eurofins/DiscoveRx; host or cells: E. coli BL21-derived host (T7 phage display) for most kinases; HEK-293 for the rest
How it was run: as §1

kinases [5] = target: T5, kinases (Homo sapiens, UniProt P36888, D835Y)
T5 construct: purchased Eurofins/DiscoveRx; host or cells: E. coli BL21-derived host (T7 phage display) for most kinases; HEK-293 for the rest
T5 sequence (P36888 27-993 D835Y): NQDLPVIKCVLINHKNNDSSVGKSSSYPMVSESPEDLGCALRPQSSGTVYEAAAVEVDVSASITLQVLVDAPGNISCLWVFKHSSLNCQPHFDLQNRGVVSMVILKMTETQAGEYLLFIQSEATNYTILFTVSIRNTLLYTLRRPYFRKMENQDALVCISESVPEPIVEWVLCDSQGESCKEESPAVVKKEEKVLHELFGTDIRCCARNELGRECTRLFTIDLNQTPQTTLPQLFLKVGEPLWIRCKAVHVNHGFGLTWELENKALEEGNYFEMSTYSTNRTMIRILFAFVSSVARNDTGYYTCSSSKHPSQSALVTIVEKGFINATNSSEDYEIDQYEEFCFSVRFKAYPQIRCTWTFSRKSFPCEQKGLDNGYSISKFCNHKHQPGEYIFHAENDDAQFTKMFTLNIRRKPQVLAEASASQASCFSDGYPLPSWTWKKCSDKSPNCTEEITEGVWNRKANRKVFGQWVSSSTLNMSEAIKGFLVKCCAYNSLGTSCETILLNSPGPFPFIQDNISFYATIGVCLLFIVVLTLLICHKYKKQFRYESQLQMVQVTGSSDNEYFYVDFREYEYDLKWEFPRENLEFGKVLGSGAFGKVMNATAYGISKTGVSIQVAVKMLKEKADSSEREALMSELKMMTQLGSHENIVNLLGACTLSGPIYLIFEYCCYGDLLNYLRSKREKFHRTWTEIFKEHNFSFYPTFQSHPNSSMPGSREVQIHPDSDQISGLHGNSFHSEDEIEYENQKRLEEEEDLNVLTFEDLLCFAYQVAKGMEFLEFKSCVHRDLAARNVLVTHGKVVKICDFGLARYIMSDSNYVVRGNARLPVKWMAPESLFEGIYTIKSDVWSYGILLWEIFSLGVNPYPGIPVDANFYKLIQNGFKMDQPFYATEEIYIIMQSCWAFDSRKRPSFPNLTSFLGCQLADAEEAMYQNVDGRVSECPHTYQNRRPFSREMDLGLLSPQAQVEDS
How it was run: as §1

kinases [6] = target: T6, kinases (Homo sapiens, UniProt P36888, K663Q)
T6 construct: purchased Eurofins/DiscoveRx; host or cells: E. coli BL21-derived host (T7 phage display) for most kinases; HEK-293 for the rest
T6 sequence (P36888 27-993 K663Q): T5 sequence (P36888 27-993 D835Y) with K637Q, Y809D
How it was run: as §1

T3 sequence (P07949 29-1114): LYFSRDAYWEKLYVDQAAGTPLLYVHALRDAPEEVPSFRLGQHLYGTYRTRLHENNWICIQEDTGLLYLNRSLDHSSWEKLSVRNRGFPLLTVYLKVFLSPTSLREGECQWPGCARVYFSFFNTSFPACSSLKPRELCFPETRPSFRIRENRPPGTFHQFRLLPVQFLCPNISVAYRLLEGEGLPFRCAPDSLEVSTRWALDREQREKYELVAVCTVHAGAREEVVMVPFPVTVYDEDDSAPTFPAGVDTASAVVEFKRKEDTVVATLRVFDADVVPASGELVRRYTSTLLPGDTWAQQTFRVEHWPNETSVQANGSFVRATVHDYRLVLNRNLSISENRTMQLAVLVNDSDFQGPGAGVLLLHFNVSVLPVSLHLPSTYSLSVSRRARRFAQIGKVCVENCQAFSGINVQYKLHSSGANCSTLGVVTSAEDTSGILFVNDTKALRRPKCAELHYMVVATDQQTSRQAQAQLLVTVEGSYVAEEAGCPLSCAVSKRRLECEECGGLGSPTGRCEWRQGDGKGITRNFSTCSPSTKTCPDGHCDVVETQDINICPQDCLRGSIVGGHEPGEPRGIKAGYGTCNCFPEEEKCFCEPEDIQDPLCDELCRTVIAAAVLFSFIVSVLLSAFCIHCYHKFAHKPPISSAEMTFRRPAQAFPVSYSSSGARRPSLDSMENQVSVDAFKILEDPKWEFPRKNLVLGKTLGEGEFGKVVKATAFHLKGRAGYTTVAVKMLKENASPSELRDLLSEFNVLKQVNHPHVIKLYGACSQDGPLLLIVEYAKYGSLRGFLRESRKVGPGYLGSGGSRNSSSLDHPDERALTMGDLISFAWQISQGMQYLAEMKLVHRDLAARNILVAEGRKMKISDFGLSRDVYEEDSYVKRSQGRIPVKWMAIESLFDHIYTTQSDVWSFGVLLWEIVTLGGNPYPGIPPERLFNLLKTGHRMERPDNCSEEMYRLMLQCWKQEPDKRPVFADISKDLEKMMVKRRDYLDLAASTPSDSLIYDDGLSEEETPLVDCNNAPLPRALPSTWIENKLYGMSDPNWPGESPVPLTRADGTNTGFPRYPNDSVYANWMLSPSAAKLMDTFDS
T4 sequence (P10721 26-976 V559D/T670I): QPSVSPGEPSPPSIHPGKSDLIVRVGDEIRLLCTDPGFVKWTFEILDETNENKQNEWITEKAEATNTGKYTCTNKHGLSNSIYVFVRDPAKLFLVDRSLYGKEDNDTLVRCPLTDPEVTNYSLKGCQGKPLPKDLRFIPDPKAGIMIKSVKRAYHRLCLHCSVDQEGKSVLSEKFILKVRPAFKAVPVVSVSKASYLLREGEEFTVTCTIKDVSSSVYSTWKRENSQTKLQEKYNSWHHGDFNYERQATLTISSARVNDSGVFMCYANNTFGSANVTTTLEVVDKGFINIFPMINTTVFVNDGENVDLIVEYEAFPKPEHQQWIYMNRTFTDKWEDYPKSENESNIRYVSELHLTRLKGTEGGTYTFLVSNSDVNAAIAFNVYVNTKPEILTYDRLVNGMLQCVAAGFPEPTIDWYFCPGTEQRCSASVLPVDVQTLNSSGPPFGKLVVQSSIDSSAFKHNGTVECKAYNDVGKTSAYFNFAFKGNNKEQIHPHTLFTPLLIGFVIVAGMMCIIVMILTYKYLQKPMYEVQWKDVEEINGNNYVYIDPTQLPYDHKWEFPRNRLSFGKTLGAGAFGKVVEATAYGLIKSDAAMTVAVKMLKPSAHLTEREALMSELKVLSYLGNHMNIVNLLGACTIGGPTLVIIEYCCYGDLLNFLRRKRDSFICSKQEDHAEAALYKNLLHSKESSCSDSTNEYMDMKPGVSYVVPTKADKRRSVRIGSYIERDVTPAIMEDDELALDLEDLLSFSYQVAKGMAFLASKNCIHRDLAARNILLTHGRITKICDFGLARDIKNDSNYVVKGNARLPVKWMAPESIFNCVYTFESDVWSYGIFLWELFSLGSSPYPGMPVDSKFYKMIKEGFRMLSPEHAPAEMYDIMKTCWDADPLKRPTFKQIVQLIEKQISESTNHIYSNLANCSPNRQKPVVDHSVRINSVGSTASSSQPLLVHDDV

| SMILES | % Ctrl, ABL1(M351T)-phosphorylated (kinases [1]; ABL1(M351T)-phosphorylated) [% Ctrl] | % Ctrl, EGFR(L858R, T790M) (kinases [2]; EGFR(L858R, T790M)) [% Ctrl] | % Ctrl, RET (kinases [3]; RET) [% Ctrl] | % Ctrl, KIT(V559D, T670I) (kinases [4]; KIT(V559D, T670I)) [% Ctrl] | % Ctrl, FLT3(D835Y) (kinases [5]; FLT3(D835Y)) [% Ctrl] | % Ctrl, FLT3(K663Q) (kinases [6]; FLT3(K663Q)) [% Ctrl] | % Ctrl, ABL1(M351T)-phosphorylated (kinases [1]; target ABL1(M351T)-phosphorylated) [% Ctrl] | % Ctrl, EGFR(L858R, T790M) (kinases [2]; target EGFR(L858R, T790M)) [% Ctrl] | % Ctrl, RET (kinases [3]; target RET) [% Ctrl] | % Ctrl, KIT(V559D, T670I) (kinases [4]; target KIT(V559D, T670I)) [% Ctrl] | % Ctrl, FLT3(D835Y) (kinases [5]; target FLT3(D835Y)) [% Ctrl] | % Ctrl, FLT3(K663Q) (kinases [6]; target FLT3(K663Q)) [% Ctrl] |
| --- | --- | --- | --- | --- | --- | --- | --- | --- | --- | --- | --- | --- |
| Cc1cc2c([nH]1)/C=C1\C(=O)Nc3ccc(cc31)-c1cnn(C)c1COCCN(C)C2=O [Ex. 124, [3a(4)Z]-6,9,14-trimethyl-10,11,13,14-tetrahydro-2H-1,17-(ethanediylidene)pyrazolo[4,3-m]dipyrrolo[3,2-f:3′,4′-i][1,4]oxazacyclopentadecine-3,8(5H,9H)-dione] | 0.05 | 1.7 | 0 | 24 | 5.6 | 13 |  |  |  |  |  |  |
| Cc1cc2c([nH]1)/C=C1\C(=O)Nc3cc(Cl)c(cc31)OCCO[C@@H](C(=O)NC1CCNCC1)CN(C)C2=O [Ex. 134, [7R,16a(17)Z]-19-chloro-2,5-dimethyl-4,16-dioxo-N-(piperidin-4-yl)-4,5,6,7,9,10,15,16-octahydro-1H-12,14-(ethaneidylidene)dipyrrolo[3,2-i:3′,4′-l][1,4,7]dioxazacyclopentadecine-7-carboxamide] | 25 | 92 | 27 | 3.9 | 10 | 73 |  |  |  |  |  |  |
| Cc1cc2c([nH]1)/C=C1\C(=O)Nc3ccc(cc31)-c1c(noc1C(C)C)COCCN(C)C2=O [Ex. 161, [3a(4)Z]-9-methyl-16-(propan-2-yl)-10,11-dihydro-2H,13H-1,17-(ethanediylidene)[1,2]oxazolo[4,3-m]dipyrrolo[3,2-f:3′,4′-i][1,4]oxazacyclopentadecine-3,8(5H,9H)-dione] |  |  |  |  |  |  | 81 | 96 | 97 | 95 | 36 | 54 |
| Cc1cc2c([nH]1)/C=C1\C(=O)Nc3ccc(cc31)-c1ccnn1CCNCCNC2=O [Ex. 43, [19a(20)Z]-2-methyl-5,6,7,8,9,10-hexahydro-15,17-(ethanediylidene)pyrazolo[1,5-g]dipyrrolo[3,4-k:2′,3′-n][1,4,7]triazacyclohexadecine-4,19(1H,18H)-dione] | 78 | 98 | 85 | 92 | 86 | 72 |  |  |  |  |  |  |
